Assay results as given in publication PMC9774391 (ACS Omega, 2022).

Key:
MAO-A = molecular target: T1, MAO-A (Homo sapiens, UniProt P21397); assay: In vitro MAO-A inhibition assay (fluorometric); type: biochemical; conditions: for inhibition at 1000 µM: 10^–3 M; for inhibition at 100 µM: 10^–4 M
T1 sequence (P21397 1-527): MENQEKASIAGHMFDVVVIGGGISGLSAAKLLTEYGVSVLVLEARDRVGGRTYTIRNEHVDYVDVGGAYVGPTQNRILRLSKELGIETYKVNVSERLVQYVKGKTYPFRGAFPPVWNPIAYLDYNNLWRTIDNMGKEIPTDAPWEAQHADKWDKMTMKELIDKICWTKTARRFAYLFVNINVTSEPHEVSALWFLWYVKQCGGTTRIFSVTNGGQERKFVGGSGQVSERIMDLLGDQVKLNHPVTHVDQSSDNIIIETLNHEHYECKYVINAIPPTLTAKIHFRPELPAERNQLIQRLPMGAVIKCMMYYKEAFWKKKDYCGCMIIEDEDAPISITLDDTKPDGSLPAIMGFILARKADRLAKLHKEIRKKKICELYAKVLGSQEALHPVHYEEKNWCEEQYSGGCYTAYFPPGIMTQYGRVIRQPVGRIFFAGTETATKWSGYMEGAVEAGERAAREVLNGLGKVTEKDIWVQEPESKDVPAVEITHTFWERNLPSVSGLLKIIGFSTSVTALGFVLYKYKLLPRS

MAO-B = molecular target: T2, MAO-B (Homo sapiens, UniProt P27338); assay: In vitro MAO-B inhibition assay (fluorometric); type: biochemical; conditions: for inhibition at 1000 µM: 10^–3 M; for inhibition at 100 µM: 10^–4 M
T2 sequence (P27338 1-520): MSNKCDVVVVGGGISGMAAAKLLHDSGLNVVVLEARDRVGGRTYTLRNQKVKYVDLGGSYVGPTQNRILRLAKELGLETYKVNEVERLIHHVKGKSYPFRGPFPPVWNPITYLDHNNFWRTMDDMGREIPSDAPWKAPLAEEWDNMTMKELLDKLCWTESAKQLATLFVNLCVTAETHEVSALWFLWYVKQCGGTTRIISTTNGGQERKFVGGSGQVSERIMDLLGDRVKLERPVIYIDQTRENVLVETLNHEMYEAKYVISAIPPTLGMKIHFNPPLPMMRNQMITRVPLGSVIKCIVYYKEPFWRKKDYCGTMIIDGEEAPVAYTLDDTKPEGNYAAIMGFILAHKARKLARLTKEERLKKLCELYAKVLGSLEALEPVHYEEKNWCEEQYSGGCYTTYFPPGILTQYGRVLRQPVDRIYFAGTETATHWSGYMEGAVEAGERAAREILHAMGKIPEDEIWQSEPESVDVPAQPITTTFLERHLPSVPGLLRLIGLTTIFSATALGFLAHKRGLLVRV

AChE = AChE (Homo sapiens, UniProt P22303); assay: biochemical; conditions: for inhibition at 1000 µM: 10^–3 M; for inhibition at 100 µM: 10^–4 M
Chain of AChE (P22303 32-614): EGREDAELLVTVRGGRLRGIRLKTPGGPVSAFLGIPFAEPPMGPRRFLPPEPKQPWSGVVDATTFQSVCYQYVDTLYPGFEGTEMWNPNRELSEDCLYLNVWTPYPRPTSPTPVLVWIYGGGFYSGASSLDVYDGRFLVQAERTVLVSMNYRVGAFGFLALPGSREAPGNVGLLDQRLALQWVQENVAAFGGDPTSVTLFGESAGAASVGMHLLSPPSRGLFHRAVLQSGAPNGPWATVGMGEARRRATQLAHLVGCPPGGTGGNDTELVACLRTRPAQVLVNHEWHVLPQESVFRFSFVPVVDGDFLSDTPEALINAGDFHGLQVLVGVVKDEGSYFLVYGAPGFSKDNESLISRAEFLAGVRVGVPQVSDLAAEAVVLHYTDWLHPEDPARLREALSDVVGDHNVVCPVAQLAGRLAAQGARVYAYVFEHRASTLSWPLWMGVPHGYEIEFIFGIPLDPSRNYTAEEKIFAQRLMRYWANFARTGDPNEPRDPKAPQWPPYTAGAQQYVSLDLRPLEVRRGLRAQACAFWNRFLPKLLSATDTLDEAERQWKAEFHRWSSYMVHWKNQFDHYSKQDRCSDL
Method: (§1) According to the modified Ellman approach outlined in our team’s earlier work, the AChE and BChE inhibitory activities of the obtained compounds were evaluated.[18]−[21]

BChE = BChE (Homo sapiens, UniProt P06276); assay: biochemical; conditions: for inhibition at 1000 µM: 10^–3 M; for inhibition at 100 µM: 10^–4 M
Chain of BChE (P06276 29-602): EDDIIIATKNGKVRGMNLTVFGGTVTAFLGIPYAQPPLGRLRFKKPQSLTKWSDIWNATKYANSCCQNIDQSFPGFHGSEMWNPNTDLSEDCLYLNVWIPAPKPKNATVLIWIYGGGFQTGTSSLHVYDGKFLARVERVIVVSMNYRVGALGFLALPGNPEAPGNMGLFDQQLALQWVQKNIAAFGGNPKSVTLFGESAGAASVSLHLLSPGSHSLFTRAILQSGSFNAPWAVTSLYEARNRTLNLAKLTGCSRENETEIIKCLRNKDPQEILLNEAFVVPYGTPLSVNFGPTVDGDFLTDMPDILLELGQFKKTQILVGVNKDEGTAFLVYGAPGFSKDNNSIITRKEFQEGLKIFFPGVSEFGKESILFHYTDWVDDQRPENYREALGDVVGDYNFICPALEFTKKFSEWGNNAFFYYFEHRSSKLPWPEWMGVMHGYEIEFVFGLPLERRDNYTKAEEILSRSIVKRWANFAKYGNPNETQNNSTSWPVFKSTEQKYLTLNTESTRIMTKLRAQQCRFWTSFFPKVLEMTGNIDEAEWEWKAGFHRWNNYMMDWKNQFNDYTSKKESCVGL
Method: as §1

Cytotoxicity test (MTT) = type: cell-based; conditions: NIH/3T3 mouse embryonic fibroblast cells (ATCC CRL-1658), NIH/3T3 mouse fibroblast healthy cell line
Method: The NIH/3T3 cells were incubated according to the manufacturer’s recommendations. In 96-well plates, NIH/3T3 cells were seeded at a density of 1 × 10^4 cells per well. The MTT test was conducted in line with the previously mentioned standards.[19],[22],[23],[28],[30]

SMILES | inhibition at 1000 µM (MAO-A) | inhibition at 100 µM (MAO-A) | inhibition at 1000 µM (MAO-B) | inhibition at 100 µM (MAO-B) | inhibition at 1000 µM (AChE) | inhibition at 100 µM (AChE) | inhibition at 1000 µM (BChE) | inhibition at 100 µM (BChE) | also measured
C#CCN(C)CC(=O)Nc1ccc(/C=C2\Cc3ccc(OC)cc3C2=O)cc1 [D32] | 76.7 ± 1.67% | 29.7 ± 0.752% | 94.8 ± 1.42% | 89.6 ± 1.27% | 33.8 ± 0.885% | 26.4 ± 0.565% | 90.9 ± 1.29% | 24.7 ± 0.455% | IC50 (MAO-B): 0.0665 ± 0.0024 µM; inhibition at 10 µM (MAO-B; 10^–5 M): 81.5 ± 1.8%; inhibition at 1 µM (MAO-B; 10^–6 M): 72.7 ± 1.32%; inhibition at 0.1 µM (MAO-B; 10^–7 M): 59.6 ± 0.977%; inhibition at 0.01 µM (MAO-B; 10^–8 M): 34.2 ± 0.514%; inhibition at 0.001 µM (MAO-B; 10^–9 M): 21.5 ± 0.429%; IC50 (Cytotoxicity test (MTT)): 282 ± 7.04 µM
CCN(CC)CCN(CC)CC(=O)Nc1ccc(/C=C2\Cc3cc(OC)c(OC)cc3C2=O)cc1 [D42] | 97.71 ± 0.411% | 40.2 ± 0.736% | 95.2 ± 1.62% | 40.2 ± 0.824% | 99.8 ± 2.01% | 44.2 ± 0.71% | 99.4 ± 1.29% | 45.91 ± 0.206% | 
COc1cc2c(cc1OC)C(=O)/C(=C/c1ccc(NC(=O)CN3CCN(C)CC3)cc1)C2 [D3] | 57.5 ± 0.875% | 26.5 ± 0.365% | 67.2 ± 0.751% | 36.2 ± 0.452% | 99.3 ± 2.34% | 44.1 ± 0.906% | 98.1 ± 1.57% | 40.4 ± 0.548% | 
COc1cc2c(cc1OC)C(=O)/C(=C/c1ccc(NC(=O)CN3CCN(CCO)CC3)cc1)C2 [D18] | 63.8 ± 0.683% | 28.39 ± 0.097% | 75.6 ± 1.2% | 47.34 ± 0.457% | 94.7 ± 1.97% | 45.3 ± 1.01% | 99.21 ± 0.887% | 41.8 ± 0.766% | 
CCN1CCN(CC(=O)Nc2ccc(/C=C3\Cc4ccc(OC)cc4C3=O)cc2)CC1 [D5] | 66.6 ± 1.49% | 24.7 ± 0.514% | 75.6 ± 1.08% | 44.4 ± 0.627% | 38.6 ± 0.518% | 31.7 ± 0.499% | 55.6 ± 549% | 26.3 ± 0.211% | 
COc1ccc2c(c1)C(=O)/C(=C/c1ccc(NC(=O)CN3CCN(C)CC3)cc1)C2 [D2] | 46.6 ± 0.853% | 27.7 ± 0.909% | 75.3 ± 0.987% | 45.3 ± 0.859% | 50.3 ± 0.731% | 42.9 ± 0.601% | 61.3 ± 0.18% | 23.6 ± 0.226% | 
C#CCN1CCN(CC(=O)Nc2ccc(/C=C3\Cc4cc(OC)c(OC)cc4C3=O)cc2)CC1 [D12] | 95.76 ± 0.49% | 45.1 ± 0.466% | 96.2 ± 1.34% | 49 ± 0.623% | 96.5 ± 2.7% | 49.7 ± 0.988% | 98.4 ± 1.79% | 48.8 ± 0.529% | 
COc1ccc2c(c1)C(=O)/C(=C/c1ccc(NC(=O)CN3CCN(CCCN(C)C)CC3)cc1)C2 [D26] | 95.12 ± 0.828% | 44.3 ± 0.914% | 94.3 ± 0.997% | 41.3 ± 0.874% | 93.3 ± 1.5% | 80.5 ± 1.21% | 56.2 ± 0.826% | 31.1 ± 0.415% | IC50 (AChE): 0.176 ± 0.0062 µM; inhibition at 10 µM (AChE; 10^–5 M): 78.1 ± 1.02%; inhibition at 1 µM (AChE; 10^–6 M): 60.6 ± 0.974%; inhibition at 0.1 µM (AChE; 10^–7 M): 40.3 ± 0.598%; inhibition at 0.01 µM (AChE; 10^–8 M): 35.6 ± 0.758%; inhibition at 0.001 µM (AChE; 10^–9 M): 24.5 ± 0.622%; IC50 (Cytotoxicity test (MTT)): 21.8 ± 0.556 µM
COCCN1CCN(CC(=O)Nc2ccc(/C=C3\Cc4cc(OC)ccc4C3=O)cc2)CC1 [D13] | 82.7 ± 1.21% | 35.5 ± 0.623% | 84.6 ± 1.11% | 44.6 ± 0.557% | 71.2 ± 1.07% | 43 ± 0.998% | 90.1 ± 1.46% | 23.9 ± 0.934% | 
C#CCN1CCN(CC(=O)Nc2ccc(/C=C3\Cc4cc(OC)ccc4C3=O)cc2)CC1 [D10] | 48.9 ± 0.966% | 22.4 ± 0.662% | 68.96 ± 0.578% | 42.6 ± 0.652% | 71.3 ± 1.01% | 29.4 ± 0.587% | 41.3 ± 0.755% | 26.6 ± 1.35% | 
COc1ccc2c(c1)C/C(=C\c1ccc(NC(=O)CN3CCN(C)CC3)cc1)C2=O [D1] | 59 ± 0.598% | 21.4 ± 0.424% | 65.12 ± 0.623% | 38.7 ± 0.512% | 83.2 ± 1.09% | 47.3 ± 0.887% | 94.6 ± 0.972% | 32.8 ± 0.455% | 
COCCN1CCN(CC(=O)Nc2ccc(/C=C3\Cc4ccc(OC)cc4C3=O)cc2)CC1 [D14] | 48.5 ± 0.749% | 27.95 ± 0.243% | 69 ± 0.847% | 39.3 ± 0.652% | 44.2 ± 0.999% | 36.3 ± 0.664% | 73.7 ± 1.51% | 33 ± 0.721% | 
COc1ccc2c(c1)C/C(=C\c1ccc(NC(=O)CN3CCN(CCO)CC3)cc1)C2=O [D16] | 65.8 ± 0.779% | 22 ± 0.233% | 75.6 ± 1.1% | 42.9 ± 0.629% | 88 ± 1.09% | 42.6 ± 1.85% | 87.63 ± 0.618% | 23.6 ± 0.448% | 
COCCN1CCN(CC(=O)Nc2ccc(/C=C3\Cc4cc(OC)c(OC)cc4C3=O)cc2)CC1 [D15] | 70.52 ± 0.536% | 20.3 ± 0.412% | 80.2 ± 1.46% | 40.1 ± 0.508% | 91.6 ± 2.56% | 43.4 ± 0.877% | 94.6 ± 1.6% | 43.5 ± 0.966% | 
CCN1CCN(CC(=O)Nc2ccc(/C=C3\Cc4cc(OC)c(OC)cc4C3=O)cc2)CC1 [D6] | 93.27 ± 0.309% | 33.9 ± 1.13% | 95.5 ± 1.25% | 48.6 ± 1.13% | 97.5 ± 2.23% | 31.3 ± 0.697% | 96.51 ± 0.317% | 32.8 ± 0.908% | 
CCN1CCN(CC(=O)Nc2ccc(/C=C3\Cc4cc(OC)ccc4C3=O)cc2)CC1 [D4] | 67.6 ± 1.06% | 20.9 ± 0.455% | 77.1 ± 1.06% | 36.3 ± 0.496% | 74.5 ± 1.02% | 38.2 ± 0.479% | 92.9 ± 2.41% | 21.21 ± 0.11% | 
COc1ccc2c(c1)C(=O)/C(=C/c1ccc(NC(=O)CN3CCN(CCO)CC3)cc1)C2 [D17] | 82.45 ± 0.529% | 34.4 ± 0.508% | 84.6 ± 1.04% | 45.4 ± 0.669% | 73.7 ± 1.06% | 48.1 ± 0.669% | 75.532 ± 0.061% | 21.1 ± 0.804% | 
C=CCN1CCN(CC(=O)Nc2ccc(/C=C3\Cc4cc(OC)c(OC)cc4C3=O)cc2)CC1 [D9] | 32.6 ± 0.389% | 24.5 ± 0.459% | 58.63 ± 0.523% | 34.8 ± 0.384% | 81.3 ± 1.13% | 45.2 ± 0.996% | 82.8 ± 1.03% | 28.2 ± 0.679% | 
C=CCN1CCN(CC(=O)Nc2ccc(/C=C3\Cc4ccc(OC)cc4C3=O)cc2)CC1 [D8] | 57.2 ± 1.34% | 26.6 ± 0.455% | 78.6 ± 1.15% | 46.2 ± 0.547% | 51 ± 0.995% | 42 ± 0.661% | 51 ± 0.667% | 28.4 ± 0.409% | 
C#CCN1CCN(CC(=O)Nc2ccc(/C=C3\Cc4ccc(OC)cc4C3=O)cc2)CC1 [D11] | 77 ± 1.59% | 25.5 ± 0.52% | 79.6 ± 1.13% | 35.6 ± 0.488% | 66.6 ± 0.985% | 49.9 ± 0.809% | 91.7 ± 1.21% | 33.9 ± 0.569% | 
C=CCN1CCN(CC(=O)Nc2ccc(/C=C3\Cc4cc(OC)ccc4C3=O)cc2)CC1 [D7] | 61.89 ± 0.618% | 41.4 ± 0.808% | 66.33 ± 0.557% | 47.9 ± 0.952% | 61.3 ± 1.01% | 34.8 ± 0.472% | 56.8 ± 0.971% | 21.2 ± 0.378% | 
C#CCN(C)CC(=O)Nc1ccc(/C=C2\Cc3cc(OC)c(OC)cc3C2=O)cc1 [D33] | 84.3 ± 1.29% | 29.9 ± 0.552% | 82.1 ± 1.19% | 39.3 ± 0.665% | 52.4 ± 1.24% | 32 ± 0.462% | 99 ± 1.75% | 46.6 ± 0.845% | 
